Measured values taken from patent US11186606B2, “Compositions and methods of modulating the immune response by activating alpha protein kinase 1” (Shanghai Yao Yuan Biotechnology Co., Ltd., priority 2017, dated 2021).

Columns and labels:
ALPK1 [1] = biological target: T1, ALPK1 (Homo sapiens, UniProt Q96QP1); assay: Thermal shift assay (SYPRO Orange) for binding to ALPK1; settings: ALPK1 7 uM
Source text: The thermal shift assay is widely used to determine the binding of a molecule to a protein of interest. The assay is based on the increase in thermal energy required for denaturation of a protein where another molecule is bound to the protein. SYPRO Orange is a fluorescent compound used in the detection of thermal shift. SYPRO Orange binds to hydrophobic surfaces of the protein, and water strongly quenches its fluorescence. When the protein unfolds, the exposed hydrophobic surfaces bind the dye, resulting in an increase in fluorescence. When another molecule is bound to the protein, an increase in the temperature required for unfolding of the protein is observed.
This assay system was used to determine whether or not chemically synthesized HBP, HMP-1bP, and H1b-ADP directly bind to ALPK1. […] Only H1b-ADP induced a shift of more than 1 degree, at each of the three highest concentrations tested, 5 uM, 25 uM, and 125 uM.

ALPK1 [2] = biological target: T1, ALPK1; assay: Cell-free kinase assay of ALPK1 autophosphorylation (Western, anti-phospho-threonine); assay type: biochemical; settings: ALPK1 2 nM, ATP; H1b-ADP 10, 1, 0.2 nM; HBP and HMP-1bP 1, 10, 100 nM
Procedure: ALPK1 activation results in its autophosphorylation. Accordingly, we next asked whether the binding of H1b-ADP to ALPK1 was sufficient to induce ALPK1 autophosphorylation. Phosphorylation assays were performed according to standard protocols. Briefly, ALPK1 was incubated (2 nM, 25° C., 1 h) in assay buffer (20 al, 25 mM HEPES pH 7.5, 50 mM KCl, 0.1 mM EDTA, 0.1 mM EGTA, 2 mM DTT, 1.5 mM CaCl2, 10 mM MgCl2) with ATP and chemically synthesized HBP, HMP-1bP, or H1b-ADP followed by denaturing gel electrophoresis and Western analysis with an anti-phospho-threonine antibody (CST) to detect autophosphorylation of ALPK1. […] The range of concentrations of HBP and HMP-1bP used in this assay (1 nM, 10 nM, 100 nM) was 10-fold higher than that used for H1b-ADP.

ALPK1 [3] = biological target: T1, ALPK1; assay: Cell-free kinase assay of ALPK1-dependent phosphorylation of IκB; assay type: biochemical; settings: 2 nM ALPK1, with or without ATP, 1 hour
Procedure: We next tested whether H1b-ADP-induced autophosphorylation of ALPK1 was effective to activate NFκB using phosphorylation of IκB as a marker for this activity. Phosphorylation assays were performed according to standard protocols and phosphorylated protein was detected by gel electrophoresis and Western blotting using an antibody that detects phosphorylated IκB. Briefly, assays were performed in a 20 μl volume at 25° C. in assay buffer (25 mM HEPES pH 7.5, 50 mM KCl, 0.1 mM EDTA, 0.1 mM EGTA, 2 mM DTT, 1.5 mM CaCl2, 10 mM MgCl2) containing 2 nM ALPK1 and H1b-ADP […] with or without ATP, or either ALPK1 alone or H1b-ADP alone, both in the presence of ATP. After 1 hour of incubation, the reaction was loaded to denaturing gel for protein electrophoresis and Western was performed to detect phosphorylation of IkB using p-IkB antibody (Abcam).

CT26 cells = assay: mRNA expression in CT26 tumor tissue after intratumoral injection (qPCR); assay type: in vivo, BALB/c mice; settings: 4 hours post intratumoral injection, 2.5 μg, 250 ng, 50 ng
Procedure: We next asked whether H1b-ADP caused an increase in pro-inflammatory cytokines within the tumor. Tumor cells (2×10^5 per 100 μL CT26 cells) were inoculated subcutaneously into the right flank of BALB/c mice. 2.5 μg (n=2), 250 ng (n=2), 50 ng (n=2) of H1b-ADP or control (n=2) was intratumorally injected (20 uL) at day 7 post inoculation. 4 hours post-injection, tumor issues were dissected and harvested. Total RNA was isolated (TRIzol™, ThermoFisher) and cDNA was synthesized (PrimeScript™ RT reagent Kit, Takara) and amplified (AceQ™ qPCR SYBR™ Green Master Mix, Vazyme Biotech using a QuantStudio™ 7 Flex Real-Time PCR Systems (ThermoFisher) according to manufacturers' protocols.

[4] = tested on: phosphatase activity in the serum; assay: Incubation of H1b-ADP with FBS, product analysed by LC-MS; assay type: in vitro ADME, bovine; settings: incubated with FBS, LC-MS; AMP formed
Source text: FBS contains 110-352 U/ml alkaline phosphatase.

[5] = tested on: mouse bone marrow-derived macrophages; assay: Cxcl1 mRNA expression in mouse bone marrow-derived macrophages (qPCR); assay type: cell-based; settings: 0.4 nM or 2 nM, 2.5 hours
Procedure: In these experiments, mouse bone marrow-derived macrophages were treated with 0.4 nM or 2 nM H1b-ADP for 2.5 hours and harvested for mRNA expression analysis of Cxcl1 by qPCR. […] Accordingly, very low doses of H1b-ADP, or an agonist thereof, may be used to enhance or potentiate an immune response in a local tissue.

ALPK1 [6] = biological target: T1, ALPK1; assay: IL8 secretion in HEK293 cells (IL8 ELISA) as indicator of ALPK1 activation; settings: cells cultured with fetal bovine, human or mouse serum
Procedure: We pre-mixed H1b-ADP with phosphatase inhibitor sodium orthovanadate (Na3VO4) before incubation with FBS.
In these experiments, serial dilutions of the compounds were added to the tissue culture media of HEK293 cells with (FIG. 27B, FIG. 28B, FIG. 29B) or without (FIG. 26, FIG. 27A, FIG. 28A, FIG. 29A) 10% FBS, as indicated in the figures. After 4 hours, the cell supernatant was collected and analyzed for IL8 concentration using IL8 ELISA (BD) as an indicator of ALPK1 activation.

ALPK1 [7] = biological target: T1, ALPK1; assay: IL-8 and TNFα mRNA expression in HEK293 cells with control or ALPK1-directed siRNA; assay type: cell-based; design: ALPK1-directed small interfering RNA (siRNA) to silence ALPK1 expression in HEK293 cells; endogenous in cells; host or cells: HEK293
Procedure: To test whether HBP, HMP-1bP, and H1b-ADP were able to induce cytokine expression in an ALPK1 dependent manner, we used an ALPK1-directed small interfering RNA (siRNA) to silence ALPK1 expression in HEK293 cells. Cells were plated (1×10^4 cells/well) into 96-well plates and transfected with either control siRNA or ALPK1-directed siRNA according to the manufacturer's protocols (Lipofectamine™ RNAiMax™, Invitrogen 13778075). Following 2 days of culture, either (1) HBP (500 uM, 100 uM, 20 uM, FIG. 2A-2B) (2) HMP-1bP (500 uM, 100 uM, FIG. 3A-3B), (3) H1b-ADP (100 nM, 20 nM, 4 nM, 0.8 nM, FIG. 4A-4B) was added to culture medium and cells were harvested 4 hours later.

[8] = 4 hours, control vs ALPK1-directed siRNA

T1 sequence (Q96QP1 whole entry): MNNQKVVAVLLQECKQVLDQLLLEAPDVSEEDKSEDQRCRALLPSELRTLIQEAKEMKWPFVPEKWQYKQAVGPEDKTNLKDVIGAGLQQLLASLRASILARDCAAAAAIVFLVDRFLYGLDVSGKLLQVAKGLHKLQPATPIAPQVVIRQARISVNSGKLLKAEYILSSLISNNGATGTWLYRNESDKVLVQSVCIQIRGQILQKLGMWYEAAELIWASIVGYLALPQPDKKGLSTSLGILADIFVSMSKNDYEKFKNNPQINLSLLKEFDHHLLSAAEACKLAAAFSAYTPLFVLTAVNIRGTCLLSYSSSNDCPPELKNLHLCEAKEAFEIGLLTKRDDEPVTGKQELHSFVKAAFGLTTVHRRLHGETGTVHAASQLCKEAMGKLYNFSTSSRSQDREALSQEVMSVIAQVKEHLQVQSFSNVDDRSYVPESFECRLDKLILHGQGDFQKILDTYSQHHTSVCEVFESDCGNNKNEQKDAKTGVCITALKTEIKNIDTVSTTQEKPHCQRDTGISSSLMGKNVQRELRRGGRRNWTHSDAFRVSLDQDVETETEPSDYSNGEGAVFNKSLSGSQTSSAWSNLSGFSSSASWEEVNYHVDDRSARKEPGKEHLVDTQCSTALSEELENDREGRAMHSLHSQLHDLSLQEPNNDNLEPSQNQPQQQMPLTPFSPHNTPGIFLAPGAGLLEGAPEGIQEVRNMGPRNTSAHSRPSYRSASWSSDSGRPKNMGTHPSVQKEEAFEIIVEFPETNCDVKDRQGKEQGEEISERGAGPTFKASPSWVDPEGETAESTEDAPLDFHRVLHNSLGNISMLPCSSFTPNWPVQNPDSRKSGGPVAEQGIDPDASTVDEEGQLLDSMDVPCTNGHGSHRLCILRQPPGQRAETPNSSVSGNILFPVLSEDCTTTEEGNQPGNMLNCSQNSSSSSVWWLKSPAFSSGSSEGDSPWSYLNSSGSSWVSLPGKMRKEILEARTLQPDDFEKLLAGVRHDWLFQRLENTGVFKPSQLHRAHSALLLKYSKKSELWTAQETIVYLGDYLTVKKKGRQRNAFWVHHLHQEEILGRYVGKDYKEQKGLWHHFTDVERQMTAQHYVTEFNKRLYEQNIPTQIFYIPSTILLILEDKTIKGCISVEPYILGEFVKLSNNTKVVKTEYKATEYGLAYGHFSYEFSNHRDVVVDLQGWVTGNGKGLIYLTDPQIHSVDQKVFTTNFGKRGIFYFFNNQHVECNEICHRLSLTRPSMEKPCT

In the case of Nc1ncnc2c1ncn2[C@@H]1O[C@H](COP(=O)(O)OP(=O)(O)O[C@@H]2O[C@H]([C@H](O)CO)[C@@H](O)[C@H](O)[C@@H]2O)[C@@H](O)[C@H]1O [Compound H1b-ADP, D-glycero-D-manno-heptose-1β-ADP], the “thermal shift / direct binding to ALPK1” value (ALPK1 [1]; 1 uM, 5 uM, 25 uM, or 125 uM) was “able to directly bind to ALPK1”, the “thermal shift of ALPK1” value (ALPK1 [1]; at 5 uM, 25 uM, and 125 uM) was “more than 1 degree” and the “autophosphorylation of ALPK1” value (ALPK1 [2]) was “detected only in the presence of H1b-ADP”. The IkB phosphorylation (ALPK1 [3]) was “detected only in the presence of both ALPK1 and H1b-ADP in the presence of ATP”, the “PD-1 and PD-L1 expression” value (CT26 cells) was “increased” and the “mRNA expression of cytotoxic T cell marker CD8, T-helper cell marker CD4, regulatory T cell marker Foxp3 and Th1 cell marker T-bet” value (CT26 cells) was “increased”. The “mRNA expression of inflammatory cytokine IL-1b, Tnfa, Ifn gamma, and IL-6, and chemokine Cxcl1” value (CT26 cells) was “increased”, the “H1b-ADP amount with increasing incubation time” value [4] was “declined” and the “Cxcl1 mRNA expression, fold change over non-treated control” value [5] was “dose-dependent response”. For the same compound, the “activity to activate ALPK1 in HEK293 cells (IL8 secretion)” value (ALPK1 [6]) was “greatly declined”, the “IL-8 mRNA expression” value (ALPK1 [7]; [8]) was “increased in an ALPK1-dependent manner” and the “TNFα mRNA expression” value (ALPK1 [7]; [8]) was “increased in an ALPK1-dependent manner”. For the same compound, the “concentration at which IL-8 and TNFα mRNA expression were induced” value (ALPK1 [7]; FIG. 5) was 10 nM.
